Source: BindingDB's records for doi:10.1016/j.bioorg.2017.01.008 (University of Karachi, 2017)
Where “and” joins values, the source holds several entries; their conditions need not be identical. Equal entries are not always repeated.

target: Intestinal-type alkaline phosphatase (Bos taurus, UniProt P19111); assay: Alkaline Phosphatase Inhibition Assay; settings: pH 9.8; 37 °C
Description: (§1) Alkaline phosphatase (b-TNAP, c-IAP purchased from Calzyme Laboratories, Inc. USA) inhibition assay of different cyclic sulfonamides was performed using a chemiluminescent substrate i.e. CDP-Star® (disodium 2-chloro-5-(4-methoxyspiro[1,2-dioxetane-3,2'-(5-chlorotricyclo[3.3.1.13.7]decan])-4-yl]-1-phenyl phosphate). With a slight modification in reported spectrophotometric procedure, an optimized conditions of the bioassay were developed [Hessle et al., Proc. Natl. Acad. Sci., 99:9445-9449]. Buffer solution for this bioassay was composed of 8 M DEA (pH 9.8) that contain 2.5 mM MgCl2 and 0.05 mM ZnCl2. First of all, the compounds were tested at the final concentration of 200 μM(with final DMSO 1% (v/v)). In bioassay procedure, the total volume (50 μL solution) contained 10 μL of tested compound, followed by the addition of 20 μL of TNAP (1:800 times diluted (0.8 unit/mL) enzyme in assay buffer) or 20 μL of IAP (1:800 times diluted (1 unit/mL) enzyme in assay buffer). The mixture was allowed to incubate for 3-5 min at 37 °C and luminescence was measured using microplate reader (BioTek FLx800, Instruments,Inc. USA). The reaction was initiated by the addition of 20 μL of CDP-star® (final concentration of 110 μM) and the assay mixture was incubated again at 37 °C. The change in the luminescence was measured after for 15 min of incubation. The activity of each compound was compared with total activity control (without any inhibitor). Levamisole (2 mM per well) and L-phenylalanine (4 mM per well) were used as a standard inhibitors for tissuenonspecific alkaline phosphatase (TNAP) and calf intestinal alkaline phosphatase (IAP), respectively.

Intestinal-type alkaline phosphatase, sequence (P19111 whole entry): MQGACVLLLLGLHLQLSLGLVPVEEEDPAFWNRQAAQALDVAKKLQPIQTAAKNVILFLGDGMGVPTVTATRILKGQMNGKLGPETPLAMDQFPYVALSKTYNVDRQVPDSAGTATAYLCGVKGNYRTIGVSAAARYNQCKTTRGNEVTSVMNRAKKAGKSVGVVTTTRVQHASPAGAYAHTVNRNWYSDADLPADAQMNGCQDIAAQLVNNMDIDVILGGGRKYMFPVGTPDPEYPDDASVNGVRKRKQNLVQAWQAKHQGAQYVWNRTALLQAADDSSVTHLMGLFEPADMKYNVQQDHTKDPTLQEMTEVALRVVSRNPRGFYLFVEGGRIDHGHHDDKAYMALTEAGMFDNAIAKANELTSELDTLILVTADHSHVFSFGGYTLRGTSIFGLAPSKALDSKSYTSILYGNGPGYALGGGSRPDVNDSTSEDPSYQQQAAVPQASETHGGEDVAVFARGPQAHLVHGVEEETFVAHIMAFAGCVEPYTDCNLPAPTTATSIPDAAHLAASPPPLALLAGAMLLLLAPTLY

Point of comparison: CN(C)c1ccc2c3c(cccc13)S(=O)(=O)NC2c1cc(Cl)cc(Cl)c1O (stereo unspecified) [6-(Dimethylamino)-3-(3',5'-dichloro-2-hydroxyphenyl)-2,3-dihydronaphtho[1,8-de][1,2]thiazine 1,1-dioxide (7g)], IC50 380 nM. Against it:
- CN(C)c1ccc2c3c(cccc13)S(=O)(=O)NC2c1ccccc1 (stereo unspecified) [6-(Dimethylamino)-3-phenyl-2,3-dihydronaphtho[1,8-de][1,2]thiazine 1,1-dioxide (7a)] — 2.9-fold higher, 1120 nM

target: T1, Alkaline phosphatase, tissue-nonspecific isozyme (Bos taurus, UniProt P09487); assay: Alkaline Phosphatase Inhibition Assay; settings: pH 9.8; 37 °C
T1 sequence (P09487 whole entry): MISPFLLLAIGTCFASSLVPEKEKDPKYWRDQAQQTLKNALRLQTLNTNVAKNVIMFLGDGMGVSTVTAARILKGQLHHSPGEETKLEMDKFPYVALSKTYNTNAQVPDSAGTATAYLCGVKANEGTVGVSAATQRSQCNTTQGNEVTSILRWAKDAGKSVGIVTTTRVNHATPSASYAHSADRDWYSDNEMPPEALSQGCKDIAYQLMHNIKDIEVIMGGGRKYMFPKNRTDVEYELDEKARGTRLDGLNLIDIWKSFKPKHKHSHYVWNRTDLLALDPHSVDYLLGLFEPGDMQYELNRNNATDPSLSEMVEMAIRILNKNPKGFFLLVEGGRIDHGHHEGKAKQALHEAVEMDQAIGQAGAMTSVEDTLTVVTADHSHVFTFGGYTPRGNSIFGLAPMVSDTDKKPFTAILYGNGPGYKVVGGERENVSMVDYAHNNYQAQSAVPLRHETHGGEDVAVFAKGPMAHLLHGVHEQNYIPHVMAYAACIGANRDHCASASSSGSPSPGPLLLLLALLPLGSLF
Description: as §1

Point of comparison: CN(C)c1ccc2c3c(cccc13)S(=O)(=O)NC2c1ccc(Cl)cc1 (stereo unspecified) [6-(Dimethylamino)-3-(4'-dichlorophenyl)-2,3-dihydronaphtho[1,8-de][1,2]thiazine 1,1-dioxide (7b)], IC50 420 nM. Against it:
- CSc1ccc(C2NS(=O)(=O)c3cccc4c(N(C)C)ccc2c34)cc1 (stereo unspecified) [6-(Dimethylamino)-3-(4'-thiomethylphenyl)-2,3-dihydronaphtho[1,8-de][1,2]thiazine 1,1-dioxide (7e)] — 16-fold higher, 6630 nM
- CN(C)c1ccc2c3c(cccc13)S(=O)(=O)NC2c1ccc([N+](=O)[O-])cc1 (stereo unspecified) [6-(Dimethylamino)-3-(4'-nitrophenyl)-2,3-dihydronaphtho[1,8-de][1,2]thiazine 1,1-dioxide (7h)] — 3.8-fold lower, 110 nM
- COc1ccccc1C1NS(=O)(=O)c2cccc3c(N(C)C)ccc1c23 (stereo unspecified) [6-(Dimethylamino)-3-(2'-methoxyphenyl)-2,3-dihydronaphtho[1,8-de][1,2]thiazine 1,1-dioxide (7i)] — within 1.5-fold, 310 nM
- CN(C)c1ccc2c3c(cccc13)S(=O)(=O)NC2c1ccccc1 (stereo unspecified) [6-(Dimethylamino)-3-phenyl-2,3-dihydronaphtho[1,8-de][1,2]thiazine 1,1-dioxide (7a)] — 2.2-fold lower, 190 nM
- COc1cc(C2NS(=O)(=O)c3cccc4c(N(C)C)ccc2c34)ccc1O (stereo unspecified) [6-(Dimethylamino)-3-(4'-hydroxy-3'-methoxyphenyl)-2,3-dihydronaphtho[1,8-de][1,2]thiazine 1,1-dioxide (7j)] — 2.1-fold lower, 200 nM
- Cc1ccc(C2NS(=O)(=O)c3cccc4c(N(C)C)ccc2c34)cc1 (stereo unspecified) [6-(Dimethylamino)-3-(4'-methylphenyl)-2,3-dihydronaphtho[1,8-de][1,2]thiazine 1,1-dioxide (7c)] — within 1.5-fold, 460 nM
- CN(C)c1ccc2c3c(cccc13)S(=O)(=O)NC2c1cc(Cl)cc(Cl)c1O (stereo unspecified) [6-(Dimethylamino)-3-(3',5'-dichloro-2-hydroxyphenyl)-2,3-dihydronaphtho[1,8-de][1,2]thiazine 1,1-dioxide (7g)] — 1.6-fold lower, 270 nM
- CN(C)c1ccc2c3c(cccc13)S(=O)(=O)NC2c1ccc(O)cc1 (stereo unspecified) [6-(Dimethylamino)-3-(4'-hydroxyphenyl)-2,3-dihydronaphtho[1,8-de][1,2]thiazine 1,1-dioxide (7d)] — within 1.5-fold, 500 nM
- N[C@@H](Cc1ccccc1)C(=O)O [L-[2,3,4,5,6-3H]phenylalanine] — 190-fold higher, 80200 nM
- CN(C)c1ccc2c3c(cccc13)S(=O)(=O)NC2c1cccc([N+](=O)[O-])c1 (stereo unspecified) [6-(Dimethylamino)-3-(3'-nitrophenyl)-2,3-dihydronaphtho[1,8-de][1,2]thiazine 1,1-dioxide (7f)] — 3.5-fold higher, 1450 nM

With COc1cc(Br)c(C2NS(=O)(=O)c3cccc4c(N(C)C)ccc2c34)cc1O (stereo unspecified) [6-(Dimethylamino)-3-(5'-bromo-2'-hydroxy-3'-methoxyphenyl)-2,3-dihydronaphtho[1,8-de][1,2]thiazine 1,1-dioxide (7m)] the IC50 was 440 nM and 680 nM.
COc1ccc(C2NS(=O)(=O)c3cccc4c(N(C)C)ccc2c34)c(OC)c1OC (stereo unspecified) [6-(Dimethylamino)-3-(2',3',4'-trimethoxyphenyl)-2,3-dihydronaphtho[1,8-de][1,2]thiazine 1,1-dioxide (7n)] was tested, and the IC50 was 1190 nM and 510 nM.
With COc1ccc(C2NS(=O)(=O)c3cccc4c(N(C)C)ccc2c34)cc1O (stereo unspecified) [6-(Dimethylamino)-3-(3'-hydroxy-4'-methoxyphenyl)-2,3-dihydronaphtho[1,8-de][1,2]thiazine 1,1-dioxide (7k)] the IC50 was 270 nM and 1690 nM.
